Results reported in patent US20170285002A1, “METHOD FOR RECONSTITUTING TUMOR WITH MICROENVIRONMENT” (Public University Corporation Yokohama City University, priority 2016, published 2017).

Experiments:
[1] = system: luciferase gene-transfected human pancreatic cancer cell line; experiment: In vitro drug sensitivity of pancreatic cancer organoid versus plane-cultured cells (luciferase activity); format: cell-based
Protocol: In each graph, the ordinate depicts the amount of luciferase activity of the pancreatic cancer cells, and the abscissa depicts an anti-cancer drug (gemcitabine, nab-paclitaxel, or 5-FU) concentration in a medium. […] Among the pancreatic cancer organoids, cancer organoids with rich-stroma show lower sensitivity to anticancer drugs.
(§1) Each pre-existing human pancreatic cancer cell line was inoculated at 5×10^3 cells/well on a 96-well plate, and gemcitabine (10^−12 to 10^−3 M) was added thereto 24 hours later. Nuclear staining was performed 72 hours after the gemcitabine addition. A cell number was measured using IN Cell Analyzer 2000, and an IC50 value was calculated. In order to specifically detect cancer cells within an organoid and calculate a cancer cell number, luciferase gene-transfected cancer cells were established and used in analysis. A cancer organoid was formed from the luciferase gene-transfected cancer cells, and luminescence was measured in the presence of a luminescent substrate (e.g., Luciferase Assay System from Promega Corp.) to evaluate the number of cancer cells present.
On the other hand, for the large-scale preparation of pancreatic cancer cell organoids having a uniform size, human pancreatic cancer cells, HUVECs, and hMSCs were cocultured using a three-dimensional culture vessel (e.g., ELPLASIA plate from Kuraray Co., Ltd.) to reconstitute a human pancreatic cancer cell line organoid. The pancreatic cancer cells of each line were inoculated at 1×10^4 cells on each well of a 96-well plate which was also inoculated with arbitrary numbers of HUVECs and hMSCs to reconstitute a cancer organoid. The mixing ratio of the cancer cells, HUVECs, and hMSCs was set to 10:0:0, 10:7:1, 10:7:20, 10:7:0, or 10:0:20.
In order to evaluate the drug sensitivity of cancer cells with high accuracy, an approach for quantitatively evaluating only the number of cancer cells within a cancer organoid was studied (FIG. 14). Luciferase gene-transfected cancer cells (CFPAC-1, PANC-1, or CAPAN-2; typically, CFPAC-1) were established, and a cancer organoid was reconstituted. Then, a luminescent substrate was added thereto, and the luminescence intensity of each well was measured using a luminescence plate reader. The luciferase gene-transfected cancer cells were inoculated at various cell numbers onto a multi-well plate, followed by luciferase assay. As a result, the luminescence intensity was confirmed to be proportional to the cell number (FIG. 15). […]
A pancreatic cancer organoid was reconstituted from luciferase gene-transfected pancreatic cancer cells and stromal cells and evaluated for its sensitivity for a pancreatic cancer therapeutic (anti-cancer drug) (FIG. 17). […]

[2] = system: CFPAC-1-derived cancer organoid xenograft; experiment: Tumor size after discontinuation of gemcitabine administration (recurrence); format: in vivo; settings: 30 mg/kg for 30 days
Protocol: Whether a xenograft reconstituted from a cancer organoid could reproduce the recurrence of pancreatic cancer was studied. […] The right diagrams show a macro photograph of the xenograft in each period. […] After cancer organoid (CFPAC-1-derived) transplantation, gemcitabine was administered (30 mg/kg) for 30 days. Then, the gemcitabine administration was discontinued.

[3] = system: CFPAC-1 xenograft; experiment: In vivo drug sensitivity of subcutaneous cell line xenograft; design: species or system NOD/Scid mice; settings: 100 mg/kg intraperitoneal
Protocol: (§2) 8000 cells of human pancreatic cancer cell line were seeded in each well of a 96-well plate, and gemcitabine was added at 24 hours. At 72 hours, the number of viable cells was measured and summarized in a graph. The pancreatic cancer cells of each line were subcutaneously transplanted to NOD/Scid mice. Gemcitabine was intraperitoneally administered at 100 mg/kg from the point in time when the tumor volume reached 100 mm^3. Change in tumor size after the gemcitabine administration was evaluated.
(§3) Each pre-existing human pancreatic cancer cell line was subcutaneously transplanted at 1×10^6 cells to each of 4- to 10-week old female immunodeficient mice (NOD/Scid mice) to prepare a xenograft. The number of xenografts formed and the volume of each xenograft were measured over time. The volume was calculated according to (minor axis×minor axis×major axis/2) mm^3. The intraperitoneal administration of gemcitabine was started from the point in time when the volume of the xenograft formed exceeded 100 mm^3. The dose concentration of gemcitabine was set to 100 mg/kg, 0 mg/kg, 5 mg/kg, or 10 mg/kg, and gemcitabine was administered once every three days for 3 weeks. Then, the xenograft was resected.
(§4) The in vitro drug sensitivity of a pre-existing human pancreatic cancer cell line CFPAC-1, PANC-1, or SW1990 was evaluated. 10^−12 to 10^−3M GEM was added to the cells cultured for 24 hours, and IC50 was calculated from the number of cells surviving 72 hours after the addition.

[4] = system: SW1990 xenograft; experiment: as above; design: species or system NOD/Scid mice; settings: 100 mg/kg intraperitoneal
Protocol: as §2, §3, §4

[5] = system: PANC-1 xenograft; experiment: as above; design: species or system NOD/Scid mice; settings: 100 mg/kg intraperitoneal
Protocol: as §2, §3, §4

[6] = system: pre-existing human pancreatic cancer cell line (CFPAC-1) organoid-derived xenograft; experiment: Drug sensitivity of human pancreatic cancer organoid-derived xenograft (tumor volume); format: in vivo, NOD/Scid mice; settings: for xenograft regression: e.g. 10 mg/kg
Protocol: After transplantation of the human pancreatic cancer cells or the human pancreatic cancer cell organoid to immunodeficient mice (NOD/Scid), gemcitabine was administered thereto at 3-day intervals from the point in time when the tumor size exceeded 100 mm3. […] A xenograft was prepared by the subcutaneous transplantation of a human pancreatic cancer cell organoid. Then, the intraperitoneal administration of gemcitabine was started from the point in time when the volume of the xenograft exceeded 100 mm^3. The dose concentration of gemcitabine was set to 0 mg/kg, 5 mg/kg, or 10 mg/kg, and the administration frequency and period were set to once every three days for 3 weeks. The volume of the xenograft was measured at appropriate times. […] The in vivo drug sensitivity of a xenograft reconstituted after transplantation of each organoid was evaluated using a typical pancreatic cancer therapeutic Gemzar (gemcitabine: GEM). A pre-existing human pancreatic cancer cell line organoid prepared by the three-dimensional coculture of a pre-existing human pancreatic cancer cell line, HUVECs, and hMSCs was subcutaneously transplanted to NOD/Scid mice. Then, the administration of GEM (e.g., 10 mg/kg) was started from the point in time when the tumor volume exceeded 100 mm^3. A non-GEM-administration group (0 mg/kg) given only physiological saline was set as a control group. GEM was administered once every three days for 30 days with reference made to a treatment regimen for human pancreatic cancer. A xenograft was recovered at GEM administration day 30 and analyzed histologically.

[7] = system: primary human pancreatic cancer cells; experiment: In vitro gemcitabine sensitivity of primary human pancreatic cancer organoid (luciferase); format: cell-based; settings: primary pancreatic cancer organoid versus pancreatic cancer cyst; 72 hours
Protocol: Pancreatic cancer cells transfected with luciferase gene were used for experiments. […] The three-dimensional coculture method abides by the method for a pancreatic cancer organoid from a pancreatic cancer cell line. […] Luciferase gene-transfected primary human pancreatic cancer cells were established, and a primary pancreatic cancer organoid (pancreatic cancer cells: 2×10^4 cells) was reconstituted in vitro and then cultured for 72 hours in the presence of gemcitabine. Then, a luminescent substrate was added thereto, and the luminescence intensity of each organoid was measured using a luminescence plate reader and analyzed.

[8] = system: primary pancreatic cancer organoid; experiment: Drug sensitivity of primary human pancreatic cancer organoid versus patient prognosis (luciferase activity); format: cell-based; settings: organoid from patient having postoperative recurrence; 72 hours
Protocol: Pancreatic cancer cells were separated from a surgically resected preparation of each pancreatic cancer patient and expanded culture was performed by the cyst culture method to obtain primary human pancreatic cancer cells. […] The obtained primary human pancreatic cancer cells were three-dimensionally cocultured with stromal cells (vascular endothelial cells (HUVECs, etc.) and mesenchymal cells (hMSCs, etc.)) to reconstitute a primary pancreatic cancer organoid. Its drug sensitivity was evaluated. The mixing ratio of these cells at the time of primary pancreatic cancer organoid preparation was 10:7:20. The number of specimens was 2. Primary pancreatic cancer cells were separated from a surgically resected specimen of each pancreatic cancer patient (with or without postoperative recurrence), subjected to expanded culture, and then transfected with luciferase gene. Then, these cancer cells were three-dimensionally cocultured with stromal cells to reconstitute a primary pancreatic cancer organoid. The reconstituted human pancreatic cancer organoid was cultured for 72 hours in the presence of gemcitabine at respective concentrations, followed by luciferase activity measurement.

[9] = system: EGFP gene-transfected cancer cells (typically, CFPAC-1) organoid; experiment: Residual cells in cancer organoid cultured with anti-cancer drug; format: cell-based, human; settings: 1 uM, 72 hours
Protocol: Residual cancer cells expressing GFP and mesenchymal cells expressing αSMA are observed even after anti-cancer drug (gemcitabine) administration. Increase in positive ratio of a cancer stem cell marker Sox9 was confirmed in the residual cancer cells. The properties of cancer cells remaining after anti-cancer drug addition and stromal cells within a cancer organoid were evaluated. EGFP gene-transfected cancer cells (typically, CFPAC-1) were established, and a cancer organoid was reconstituted (the cancer cell:HUVEC:hMSC ratio is, for example, 10:7:10 to 10:7:20). Then, the cancer organoid was cultured for 72 hours in a medium containing 1 uM gemcitabine.

[10] = system: human lung cancer cell line (A549 cells); experiment: In vitro drug sensitivity of human lung cancer cell line organoid (luciferase activity); format: cell-based
Protocol: FIG. 29 A lung cancer organoid prepared three-dimensionally using a human lung cancer cell line (A549 cells) expressing luciferase gene and EGFP, as well as HUVECs and hMSCs, and a three-dimensional aggregate composed of only pancreatic cancer cells were evaluated for their in vitro drug sensitivity. The left diagrams show a fluorescence phase-contrast microscope image of the lung cancer organoid. In the graph of the right diagram, the ordinate depicts the amount of luciferase activity of the lung cancer cells, and the abscissa depicts an anti-cancer drug (gemcitabine) concentration in the medium. […] A pre-existing human lung cancer cell line (A549) was introduced from ATCC. In the present study, this cell line was introduced and then used at a passage number of 10 or less in experiments. The pre-existing human lung cancer cell line was transfected with luciferase gene in advance. The human lung cancer cell line, HUVECs, and hMSCs were inoculated onto a three-dimensional culture vessel ([…] plate from Kuraray Co., Ltd.) to reconstitute a human lung cancer cell line organoid. The human lung cancer cell line was inoculated at 3×10^3 cells on each well of a 96-well plate which was also inoculated with arbitrary numbers of HUVECs and hMSCs to reconstitute a cancer organoid. The mixing ratio of the cancer cells, HUVECs, and hMSCs was set to 10:0:0, 10:7:1 (Low hMSC), or 10:7:20 (High hMSC). A lung cancer organoid prepared three-dimensionally using a luciferase gene and EGFP expressing human lung cancer cell line (A549 cells), HUVECs, and hMSCs, and a three-dimensional aggregate composed of only pancreatic cancer cells were evaluated for their in vitro drug sensitivity. The left diagrams show a fluorescence phase-contrast microscope image of the lung cancer organoid. In the graph of the right diagram, the ordinate depicts the amount of luciferase activity of the lung cancer cells, and the abscissa depicts an anti-cancer drug (gemcitabine) concentration in a medium.

[11] = system: CFPAC-1; experiment: In vitro drug sensitivity of pre-existing human pancreatic cancer cell line (surviving cell number, IC50); format: cell-based; settings: cells surviving 72 hours after addition
Protocol: as §2, with “evaluated. The discrepancy between the in vitro anti-cancer drug sensitivity and the in vivo anti-cancer drug sensitivity was confirmed.” for “evaluated.”
as §1
(§5) The in vitro drug sensitivity of a pre-existing human pancreatic cancer cell line CFPAC-1, PANC-1, or SW1990 was evaluated. 10^−12 to 10^−3M GEM was added to the cells cultured for 24 hours, and IC50 was calculated from the number of cells surviving 72 hours after the addition. As a result, IC50 of CFPAC-1, PANC-1, or SW1990 was 0.03 μM, 0.7 μM, or 0.2 μM, respectively (upper panels of FIG. 1). On the other hand, the cancer cells were subcutaneously transplanted to NOD/Scid mice, and the xenograft formed was evaluated for its in vivo drug sensitivity by the administration of GEM at 100 mg/kg.

[12] = system: PANC-1; experiment: as above; format: cell-based; settings: cells surviving 72 hours after addition
Protocol: as §2, with “evaluated. The discrepancy between the in vitro anti-cancer drug sensitivity and the in vivo anti-cancer drug sensitivity was confirmed.” for “evaluated.”
as §1, §5

[13] = system: SW1990; experiment: as above; format: cell-based; settings: cells surviving 72 hours after addition
Protocol: as §2, with “evaluated. The discrepancy between the in vitro anti-cancer drug sensitivity and the in vivo anti-cancer drug sensitivity was confirmed.” for “evaluated.”
as §1, §5

[14] = system: pancreatic cancer organoid-derived xenograft; experiment: Immunostaining of residual xenograft tissue after gemcitabine administration; format: in vivo, immunodeficient mice
Protocol: A paraffin section was deparaffinized, then dipped in a citrate buffer, and activated at 121° C. for 20 minutes. After washing with PBS containing 0.05% Tween 20 (PBST) for 5 minutes three times, a buffer for blocking (Dako Japan Co., Ltd.) was added to the section, and blocking reaction was performed at room temperature for 1 hour. Next, a primary antibody solution was added thereto and reacted overnight at 4° C. After the primary antibody (anti-EpCAM antibody, anti-αSMA antibody, anti-cytokeratin 7 (CK7) antibody, anti-CD31 antibody, or anti-laminin antibody) reaction, the section was washed with PBST for 5 minutes three times. A secondary antibody solution diluted with a buffer solution was added thereto and reacted at room temperature for 1 hour in the dark. After the secondary antibody reaction, the section was washed with PBST for 5 minutes three times and mounted on a glass slide using a mounting agent containing a DAPI staining solution (Wako Pure Chemical Industries, Ltd.). A pre-existing human pancreatic cancer cell line was transplanted at 2×10^5 cells to immunodeficient mice. After a xenograft reached 100 mm^3, gemcitabine was administered thereto once every three days. […] A pancreatic cancer cell line was transplanted to immunodeficient mice. Then, gemcitabine administration was started from the point in time when a xenograft reached 100 mm^3. […]

[15] = system: primary pancreatic cancer organoid xenograft; experiment: In vivo drug sensitivity of primary human pancreatic cancer organoid xenograft (tumor size); design: species or system immunodeficient mice; settings: primary organoid transplantation group versus cyst transplantation group; once every three days
Protocol: FIG. 28 A primary cancer organoid was prepared from a primary cancer cell line, and a xenograft was reconstituted in immunodeficient mice in vivo. […] A primary pancreatic cancer organoid (pancreatic cancer cells: 2×10^5 cells) was reconstituted in vitro and then transplanted to immunodeficient mice. […] Gemcitabine was administered thereto once every three days from the point in time when a xenograft reached 100 mm^3.

[16] = pancreatic cancer organoid (with HUVECs and hMSCs)
[17] = two-dimensionally cultured pancreatic cancer cells

For `O=c1[nH]cc(F)c(=O)[nH]1` [5-FU], the “drug sensitivity (luciferase activity)” value [1, 16] was “lower drug sensitivity” and the “drug sensitivity (luciferase activity)” value [1, 17] was “high sensitivity”.
With `Nc1ccn([C@@H]2O[C@H](CO)[C@@H](O)C2(F)F)c(=O)n1` [gemcitabine] the “tumor size after discontinuation of administration” value ([2]; pancreatic cancer organoid transplantation group) was “increased markedly”, the “tumor size after discontinuation of administration” value ([2]; suspension transplantation group) was “constant tumor size” and the tumor regression [3] was “tumor regression was found”. For the same compound, the tumor regression [4] was “no tumor regression was found”, the tumor regression [5] was “tumor regression was found” and the “increase in xenograft volume” value ([6]; all transplantation groups, e.g. 10 mg/kg once every three days for 30 days, versus non-GEM group) was “suppressed”. The xenograft regression ([6]; organoid with hMSCs in a large number (High hMSC)) was “exhibited no regression and increased in volume”, the xenograft regression ([6]; organoids of the other groups) was “exhibited regression” and the “drug resistance (luminescence intensity)” value [7] was “significantly high drug resistance”. The “drug sensitivity (luciferase activity)” value [8] was “resistance”, the “drug sensitivity (luciferase activity)” value [1, 16] was “lower drug sensitivity” and the “drug sensitivity (luciferase activity)” value [1, 17] was “high sensitivity”. The “residual cancer stem cells in organoid” value [9] was “GFP-positive and Sox9-positive cancer stem cells are confirmed to remain”, the “drug sensitivity (luciferase activity)” value ([10]; High stroma group (hMSCs and HUVECs with high incidence)) was “even lower sensitivity” and the “drug sensitivity (luciferase activity)” value ([10]; lung cancer cell aggregate) was “high sensitivity”. The “drug sensitivity (luciferase activity)” value ([10]; organoid culture groups) was “lower drug sensitivity”, the IC50 [11] was 30 nM and the IC50 [12] was 700 nM. For the same compound, the IC50 [13] was 200 nM, the “ABCG2-expressing pancreatic cancer cells after administration” value ([14]; cancer organoid transplantation group, administration day 30) was “Pancreatic cancer cells expressing ABCG2 are confirmed to remain” and the “Ki67-positive cells after administration” value ([14]; organoid-derived xenograft, 1 month after start of administration once every three days) was “high incidence of Ki67-positive cells”. For the same compound, the “drug resistance (tumor size)” value [15] was “significantly high drug resistance”.
